From US9682976B2, “Protein kinase C inhibitors and uses thereof” (Rigel Pharmaceuticals, Inc., priority 2012, dated 2017)

Tested on: PKC mediated IL-2 production
Test: IL-2 ELISA, human primary T cell, anti CD3+CD28+
Assay type: cell-based
Settings: human primary T cells stimulated with αCD3 and αCD28, 24 hours
Procedure, shortened: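 IL-2 was quantified by ELISA in 24 h supernatants from primary human T cells given a 1 h compound pre-treatment at 37° C. These cells had been expanded from blood mononuclear cells on αCD3/αCD28 with IL-2, and the IL-2 was removed by washing. Stimulation used plate-bound αCD3 ([…]) plus αCD28 (5 μg/ml); the counter assay used PMA (0.5 ng/ml) with ionomycin (0.1 uM) instead.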

| SMILES | EC50 (Homo sapiens, T-cell, 24 h) | EC50 |
| --- | --- | --- |
| CC1(C)C[C@H](Nc2nc(Nc3ccc(OCC4COCCO4)c(C#N)c3)ncc2F)C[C@@H]2CCCN21 (stereo partly drawn) [Compound 177, 2-((1,4-dioxan-2-yl)methoxy)-5-(4-((7R,8aS)-5,5-dimethyloctahydroindolizin-7-ylamino)-5-fluoropyrimidin-2-ylamino)benzonitrile] | 100 to 500 nM | – |
| Cn1nc2n(c1=O)-c1cc(Nc3ncc(F)c(N[C@@H]4C[C@@H]5CCCN5C(C)(C)C4)n3)ccc1OCC2(C)O (stereo partly drawn) [Compound 295, 5-fluoro-N2-(1H-2,3,4,5-tetrahydron-2,4-dimethyl-4-hydroxy-[1,2,4]triazolo[4,5-c][1,5]benzoxazepin-1-one-9-yl)-N4-((7R,8aS)-octahydro-5,5-dimethylindolizin-7-yl)pyrimidine-2,4-diamine] | – | 500 to 1000 nM |
| Cc1ccc(Nc2ncc(Cl)c(N[C@@H]3C[C@@H]4CCCN4C(C)(C)C3)n2)cc1-n1cnnn1 [Compound 147, 5-chloro-N4-((7R,8aS)-5,5-dimethyloctahydroindolizin-7-yl)-N2-(4-methyl-3-(1H-tetrazol-1-yl)phenyl)pyrimidine-2,4-diamine] | < 100 nM | – |
| Cn1nc2n(c1=O)-c1cc(Nc3ncc(F)c(N[C@@H]4C[C@@H]5CCCN5C(C)(C)C4)n3)ccc1OC21COC1 [Compound 293, 5-fluoro-N2-(1H-2,4-dihydron-spiro(2H-1,4-benzoxazine-4,3′-[3H]oxetan)-2-methyl-[1,2,4]triazolo[3,4-c][1,4]benzoxazin-1-one-8-yl)-N4-((7R,8aS)-octahydro-5,5-dimethylindolizin-7-yl)pyrimidine-2,4-diamine] | 100 to 500 nM | – |
| Cn1nnn(-c2cc(Nc3ncc(F)c(N[C@@H]4C[C@@H]5CCCN5C(C)(C)C4)n3)c(F)cc2OC2CC(O)C2)c1=O (stereo partly drawn) [Compound 227, 1-(5-((4-(((7R,8aS)-5,5-dimethyloctahydroindolizin-7-yl)amino)-5-fluoropyrimidin-2-yl)amino)-4-fluoro-2-(3-hydroxycyclobutoxy)phenyl)-4-methyl-1,4-dihydro-5H-tetrazol-5-one] | 100 to 500 nM | – |
| COc1cc(Nc2ncc(F)c(N[C@@H]3C[C@@H]4CCCN4C(C)(C)C3)n2)cc(OC)c1OC [Compound 156, N4-((7R,8aS)-5,5-dimethyloctahydroindolizin-7-yl)-5-fluoro-N2-(3,4,5-trimethoxyphenyl)pyrimidine-2,4-diamine] | 1000 to 10000 nM | – |
| CC1(C)C[C@H](Nc2nc(Nc3ccc(OC4CCNCC4)c(C(F)(F)F)c3)ncc2F)C[C@@H]2CCCN21 [Compound 118, N^4-((7R,8aS)-5,5-dimethyloctahydroindolizin-7-yl)-5-fluoro-N^2-(4-(piperidin-4-yloxy)-3-(trifluoromethyl)phenyl)pyrimidine-2,4-diamine] | 100 to 500 nM | – |
| [2H]C1(Oc2ccc(Nc3ncc(F)c(N[C@H]4CCN5[C@@H](CCC5(C)C)C4)n3)cc2-n2nnn(C)c2=O)CC(O)C1 (stereo partly drawn) [Compound 309, 1-(5-((4-(((7S,8aS)-3,3-Dimethyloctahydroindolizin-7-yl)amino)-5-fluoropyrimidin-2-yl)amino)-2-(3-hydroxycyclobutoxy-1-d)phenyl)-4-methyl-1,4-dihydro-5H-tetrazol-5-one] | 100 to 500 nM | – |
| C[C@H](O)COc1cc(F)c(Nc2ncc(Cl)c(N[C@@H]3C[C@@H]4CCCN4C(C)(C)C3)n2)cc1-n1nnn(C)c1=O [Compound 235, 1-(5-((5-chloro-4-(((7R,8aS)-5,5-dimethyloctahydroindolizin-7-yl)amino)pyrimidin-2-yl)amino)-4-fluoro-2-((S)-2-hydroxypropoxy)phenyl)-4-methyl-1,4-dihydro-5H-tetrazol-5-one] | < 100 nM | – |
| COc1cc(Nc2ncc(F)c(N[C@@H]3C[C@@H]4CCCN4C(C)(C)C3)n2)ccc1O [Compound 208, 4-((4-(((7R,8aS)-5,5-dimethyloctahydroindolizin-7-yl)amino)-5-fluoropyrimidin-2-yl)amino)-2-methoxyphenol] | 1000 to 10000 nM | – |
| Cn1nnn(-c2cc(Nc3ncc(F)c(N[C@@H]4C[C@@H]5CCC(=O)N5C(C)(C)C4)n3)c(F)cc2C2CC2)c1=O (racemic) [Compound 31, 1-(5-(5-fluoro-4-(hexahydro-5,5-dimethylindolizin-3(5H)-one-7-ylamino)pyrimidin-2-ylamino)-2-cyclopropyl-4-fluorophenyl)-4-methyl-1H-tetrazol-5(4H)-one] | 1000 to 10000 nM | – |
| CC1(C)C[C@H](Nc2nc(Nc3cc(-n4cnnn4)c(C4CC4)cc3F)ncc2F)C[C@@H]2CC(F)(F)CN21 [Compound 46, N^2-(4-cyclopropyl-2-fluoro-5-(1H-tetrazol-1-yl)phenyl)-5-fluoro-N^4-((7R,8aR)-2,2-difluoro-octahydro-5,5-dimethylindolizin-7-yl)pyrimidine-2,4-diamine] | 500 to 1000 nM | – |
| Cn1nnn(-c2cc(Nc3ncc(F)c(N[C@H]4CCN5[C@@H](CCC5(C)C)C4)n3)c(F)cc2C2CC2)c1=O (single isomer, unassigned) [Compound 37] | – | 1000 to 10000 nM |
| CC1(C)Oc2cc(Nc3ncc(F)c(N[C@@H]4C[C@@H]5CCCN5C(C)(C)C4)n3)ccc2N(CC2CC2)C1=O [Compound 105, 4-(cyclopropylmethyl)-7-((4-(((7R,8aS)-5,5-dimethyloctahydroindolizin-7-yl)amino)-5-fluoropyrimidin-2-yl)amino)-2,2-dimethyl-2H-benzo[b][1,4]oxazin-3(4H)-one] | 500 to 1000 nM | – |
| CC1(C)C[C@H](Nc2nc(Nc3ccc4c(c3)OCC(=O)N4CC3CC3)ncc2F)C[C@@H]2CCCN21 [Compound 104, 4-(cyclopropylmethyl)-7-((4-(((7R,8aS)-5,5-dimethyloctahydroindolizin-7-yl)amino)-5-fluoropyrimidin-2-yl)amino)-2H-benzo[b][1,4]oxazin-3(4H)-one] | 100 to 500 nM | – |
| Cn1nnn(-c2cc(Nc3ncc(F)c(N[C@@H]4C[C@@H]5CCCN5C(C)(C)C4)n3)c(F)cc2Br)c1=O [Compound 91, 1-(5-(4-((7R,8aS)-octahydro-5,5-dimethylindolizin-7-ylamino)-5-fluoropyrimidin-2-ylamino)-2-bromo-4-fluorophenyl)-4-methyl-1H-tetrazol-5(4H)-one] | < 100 nM | – |
| CC(C)OC(=O)COc1cc(F)c(Nc2ncc(F)c(N[C@@H]3C[C@@H]4CCCN4C(C)(C)C3)n2)cc1-n1nnn(C)c1=O [Compound 323, isopropyl 2-(4-(4-((7R,8aS)-octahydro-5,5-dimethylindolizin-7-ylamino)-5-fluoropyrimidin-2-ylamino)-5-fluoro-2-(4,5-dihydro-4-methyl-5-oxotetrazol-1-yl)phenoxy)acetate] | 1000 to 10000 nM | – |
| CC1(C)C[C@H](Nc2nc(Nc3cc(C#N)c(C4CC4)cc3F)ncc2Cl)C[C@@H]2CCCN21 [Compound 181, 5-((5-chloro-4-(((7R,8aS)-5,5-dimethyloctahydroindolizin-7-yl)amino)pyrimidin-2-yl)amino)-2-cyclopropyl-4-fluorobenzonitrile] | 100 to 500 nM | – |
| [2H]C1(Oc2ccc(Nc3ncc(F)c(N[C@H]4CCN5[C@@H](CCC5(C)C)C4)n3)cc2Cl)CC(OCc2ccccc2)C1 (stereo partly drawn) [Compound 311, N2-(4-(3-(benzyloxy)cyclobutoxy-1-d)-3-chlorophenyl)-N4-((7S,8aS)-3,3-dimethyloctahydroindolizin-7-yl)-5-fluoropyrimidine-2,4-diamine] | 1000 to 10000 nM | – |
| CC1(COc2ccc(Nc3ncc(F)c(N[C@@H]4C[C@@H]5CCCN5C(C)(C)C4)n3)cc2-n2cnnn2)COC1 [Compound 203, N4-((7R,8aS)-5,5-dimethyloctahydroindolizin-7-yl)-5-fluoro-N2-(4-((3-methyloxetan-3-yl)methoxy)-3-(1H-tetrazol-1-yl)phenyl)pyrimidine-2,4-diamine] | < 100 nM | – |
| COc1ccc(Nc2ncc(F)c(N[C@@H]3C[C@@H]4CCCN4C(C)(C)C3)n2)cc1-n1nnnc1OC1COC1 [Compound 284, 5-fluoro-N4-((7R,8aS)-octahydro-5,5-dimethylindolizin-7-yl)-N2-(4-methoxy-3-(5-(oxetan-3-yloxy)-1H-tetrazol-1-yl)phenyl)pyrimidine-2,4-diamine] | < 100 nM | – |
| Cn1nc2n(c1=O)-c1cc(Nc3ncc(F)c(N[C@@H]4C[C@@H]5CCCN5C(C)(C)C4)n3)ccc1OC2(C)C [Compound 248, 5-fluoro-N2-(1H-2,4-dihydron-2,4,4-trimethyl-[1,2,4]triazolo[3,4-c][1,4]benzoxazin-1-one-8-yl)-N4-((7R,8aS)-octahydro-5,5-dimethylindolizin-7-yl)pyrimidine-2,4-diamine] | 100 to 500 nM | – |
| Cc1ccc(Nc2ncc(F)c(N[C@@H]3C[C@@H]4CCCN4C(C)(C)C3)n2)cc1-n1nn[nH]c1=O [Compound 272, 1-(5-(4-((7R,8aS)-octahydro-5,5-dimethylindolizin-7-ylamino)-5-fluoropyrimidin-2-ylamino)-2-methylphenyl)-1H-tetrazol-5(4H)-one] | > 10000 nM | – |
| CC1(C)C[C@H](Nc2nc(Nc3ccc(OCC(O)(C(F)(F)F)C(F)(F)F)c(C#N)c3)ncc2F)C[C@@H]2CCCN21 [Compound 209, 5-((4-(((7R,8aS)-5,5-dimethyloctahydroindolizin-7-yl)amino)-5-fluoropyrimidin-2-yl)amino)-2-(3,3,3-trifluoro-2-hydroxy-2-(trifluoromethyl)propoxy)benzonitrile] | 100 to 500 nM | – |
| Cn1nc2n(c1=O)-c1cc(Nc3ncc(F)c(N[C@@H]4C[C@@H]5CCCN5C(C)(C)C4)n3)ccc1OCC2(C)O (stereo partly drawn) [Compound 292, 5-fluoro-N2-(1H-2,3,4,5-tetrahydron-2,4-dimethyl-4-hydroxy-[1,2,4]triazolo[4,5-c][1,5]benzoxazepin-1-one-9-yl)-N4-((7R,8aS)-octahydro-5,5-dimethylindolizin-7-yl)pyrimidine-2,4-diamine] | 500 to 1000 nM | – |
| CC1(C)C[C@H](Nc2nc(Nc3ccc(OCC4(CO)COC4)c(C#N)c3)ncc2F)C[C@@H]2CCCN21 [Compound 174, 5-(4-((7R,8aS)-5,5-dimethyloctahydroindolizin-7-ylamino)-5-fluoropyrimidin-2-ylamino)-2-((3-(hydroxymethyl)oxetan-3-yl)methoxy)benzonitrile] | 500 to 1000 nM | – |
